# PubChem BioAssay (NCI)
#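 Compound exposure: 48 hours, 5 concentrations, 96-well plates. TGI denotes the concentration required for complete inhibition of growth.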
# Legend:
# Experiment in all cases: DTP human tumour cell line panel, 48 h
# MALME-3M melanoma = system: MALME-3M melanoma
# SF-268 CNS = system: SF-268 CNS
# IGROV1 ovarian = system: IGROV1 ovarian
# HT29 colon = system: HT29 colon
# OVCAR-4 ovarian = system: OVCAR-4 ovarian
# KM12 colon = system: KM12 colon
# SNB-75 CNS = system: SNB-75 CNS
# COLO 205 colon = system: COLO 205 colon
# U251 CNS = system: U251 CNS
# SK-MEL-28 melanoma = system: SK-MEL-28 melanoma
# SR leukemia = system: SR leukemia
# RPMI-8226 leukemia = system: RPMI-8226 leukemia
# DMS 114 small cell lung = system: DMS 114 small cell lung
# K-562 leukemia = system: K-562 leukemia
# ACHN renal = system: ACHN renal
# SK-MEL-5 melanoma = system: SK-MEL-5 melanoma
# A498 renal = system: A498 renal
# NCI-H522 lung = system: NCI-H522 lung
# MOLT-4 leukemia = system: MOLT-4 leukemia
# NCI-H460 lung = system: NCI-H460 lung
# M14 melanoma = system: M14 melanoma
# HCT-15 colon = system: HCT-15 colon
# DMS 273 small cell lung = system: DMS 273 small cell lung
# SW-620 colon = system: SW-620 colon
# LXFL 529 NSCLC = system: LXFL 529 NSCLC
# SF-539 CNS = system: SF-539 CNS
# HOP-18 NSCLC = system: HOP-18 NSCLC
# UACC-257 melanoma = system: UACC-257 melanoma
# TK-10 renal = system: TK-10 renal
# UACC-62 melanoma = system: UACC-62 melanoma
# SK-MEL-2 melanoma = system: SK-MEL-2 melanoma
# NCI-H23 lung = system: NCI-H23 lung
# RXF 393 renal = system: RXF 393 renal
# CCRF-CEM leukemia = system: CCRF-CEM leukemia
# HCC-2998 colon = system: HCC-2998 colon
# DLD-1 colon = system: DLD-1 colon
# XF 498 CNS = system: XF 498 CNS
# SNB-19 CNS = system: SNB-19 CNS
# HOP-92 NSCLC = system: HOP-92 NSCLC
# SNB-78 CNS = system: SNB-78 CNS
# NCI-H226 lung = system: NCI-H226 lung
# OVCAR-3 ovarian = system: OVCAR-3 ovarian
# A549 NSCLC = system: A549 NSCLC
# LOX IMVI melanoma = system: LOX IMVI melanoma
# UO-31 renal = system: UO-31 renal
# HL-60(TB) leukemia = system: HL-60(TB) leukemia
# M19-MEL melanoma = system: M19-MEL melanoma
# SK-OV-3 ovarian = system: SK-OV-3 ovarian
# OVCAR-5 ovarian = system: OVCAR-5 ovarian
# SF-295 CNS = system: SF-295 CNS
# SN12C renal = system: SN12C renal
# HCT-116 colon = system: HCT-116 colon
# 786-0 renal = system: 786-0 renal
# OVCAR-8 ovarian = system: OVCAR-8 ovarian
# CAKI-1 renal = system: CAKI-1 renal
# KM20L2 colon = system: KM20L2 colon
# EKVX NSCLC = system: EKVX NSCLC
# HOP-62 NSCLC = system: HOP-62 NSCLC
# RXF-631 renal = system: RXF-631 renal
smiles,measurement,setting,value
COc1c(Cl)c(Cl)c(OC)c2c1C(=O)C=CC2=O,TGI,MALME-3M melanoma,29.5 µM
same,TGI,SF-268 CNS,30.6 µM
same,TGI,IGROV1 ovarian,56.9 µM
same,TGI,HT29 colon,87.2 µM
same,TGI,OVCAR-4 ovarian,28.9 µM
same,TGI,KM12 colon,32.2 µM
same,TGI,SNB-75 CNS,80 µM
same,TGI,COLO 205 colon,31.7 µM
same,TGI,U251 CNS,40.4 µM
same,TGI,SK-MEL-28 melanoma,34.7 µM
same,TGI,SR leukemia,42.9 µM
same,TGI,RPMI-8226 leukemia,73.1 µM
same,TGI,DMS 114 small cell lung,29.7 µM
same,TGI,K-562 leukemia,64.4 µM
same,TGI,ACHN renal,29.2 µM
same,TGI,SK-MEL-5 melanoma,> 100 µM
same,TGI,A498 renal,> 100 µM
same,TGI,NCI-H522 lung,31.7 µM
same,TGI,MOLT-4 leukemia,46.7 µM
same,TGI,NCI-H460 lung,> 100 µM
same,TGI,M14 melanoma,43.3 µM
same,TGI,HCT-15 colon,> 100 µM
same,TGI,DMS 273 small cell lung,31.5 µM
same,TGI,SW-620 colon,31.2 µM
same,TGI,LXFL 529 NSCLC,29.3 µM
same,TGI,SF-539 CNS,41.2 µM
same,TGI,HOP-18 NSCLC,> 100 µM
same,TGI,UACC-257 melanoma,35.4 µM
same,TGI,TK-10 renal,41.9 µM
same,TGI,UACC-62 melanoma,30.4 µM
same,TGI,SK-MEL-2 melanoma,33.9 µM
same,TGI,NCI-H23 lung,> 100 µM
same,TGI,RXF 393 renal,30.9 µM
same,TGI,CCRF-CEM leukemia,53.5 µM
same,TGI,HCC-2998 colon,> 100 µM
same,TGI,DLD-1 colon,29.5 µM
same,TGI,XF 498 CNS,31 µM
same,TGI,SNB-19 CNS,> 100 µM
same,TGI,HOP-92 NSCLC,28.8 µM
same,TGI,SNB-78 CNS,26.7 µM
same,TGI,NCI-H226 lung,> 100 µM
same,TGI,OVCAR-3 ovarian,31.6 µM
same,TGI,A549 NSCLC,> 100 µM
same,TGI,LOX IMVI melanoma,30.2 µM
same,TGI,UO-31 renal,31.7 µM
same,TGI,HL-60(TB) leukemia,5.09 µM
same,TGI,M19-MEL melanoma,32.3 µM
same,TGI,SK-OV-3 ovarian,> 100 µM
same,TGI,OVCAR-5 ovarian,> 100 µM
same,TGI,SF-295 CNS,48.8 µM
same,TGI,SN12C renal,62.2 µM
same,TGI,HCT-116 colon,31.6 µM
same,TGI,786-0 renal,31.3 µM
same,TGI,OVCAR-8 ovarian,32.1 µM
same,TGI,CAKI-1 renal,59.1 µM
same,TGI,KM20L2 colon,> 100 µM
same,TGI,EKVX NSCLC,31.8 µM
O=C1CCC2CCOc3ccc(O)c1c32 (stereo not given),TGI,MALME-3M melanoma,> 100 µM
same,TGI,SF-268 CNS,> 100 µM
same,TGI,IGROV1 ovarian,> 100 µM
same,TGI,HT29 colon,> 100 µM
same,TGI,OVCAR-4 ovarian,> 100 µM
same,TGI,KM12 colon,> 100 µM
same,TGI,HOP-62 NSCLC,> 100 µM
same,TGI,SNB-75 CNS,> 100 µM
same,TGI,COLO 205 colon,> 100 µM
same,TGI,U251 CNS,> 100 µM
same,TGI,SK-MEL-28 melanoma,> 100 µM
same,TGI,SR leukemia,> 100 µM
same,TGI,RPMI-8226 leukemia,> 100 µM
same,TGI,DMS 114 small cell lung,> 100 µM
same,TGI,K-562 leukemia,> 100 µM
same,TGI,ACHN renal,> 100 µM
same,TGI,SK-MEL-5 melanoma,> 100 µM
same,TGI,A498 renal,> 100 µM
same,TGI,NCI-H522 lung,> 100 µM
same,TGI,MOLT-4 leukemia,> 100 µM
same,TGI,NCI-H460 lung,> 100 µM
same,TGI,M14 melanoma,> 100 µM
same,TGI,HCT-15 colon,> 100 µM
same,TGI,DMS 273 small cell lung,> 100 µM
same,TGI,SF-539 CNS,> 100 µM
same,TGI,UACC-257 melanoma,> 100 µM
same,TGI,TK-10 renal,> 100 µM
same,TGI,UACC-62 melanoma,> 100 µM
same,TGI,SK-MEL-2 melanoma,> 100 µM
same,TGI,NCI-H23 lung,> 100 µM
same,TGI,RXF 393 renal,> 100 µM
same,TGI,CCRF-CEM leukemia,> 100 µM
same,TGI,HCC-2998 colon,> 100 µM
same,TGI,DLD-1 colon,> 100 µM
same,TGI,SNB-19 CNS,> 100 µM
same,TGI,HOP-92 NSCLC,> 100 µM
same,TGI,SNB-78 CNS,> 100 µM
same,TGI,NCI-H226 lung,> 100 µM
same,TGI,OVCAR-3 ovarian,> 100 µM
same,TGI,A549 NSCLC,> 100 µM
same,TGI,UO-31 renal,> 100 µM
same,TGI,HL-60(TB) leukemia,> 100 µM
same,TGI,M19-MEL melanoma,> 100 µM
same,TGI,SK-OV-3 ovarian,> 100 µM
same,TGI,OVCAR-5 ovarian,> 100 µM
same,TGI,SF-295 CNS,> 100 µM
same,TGI,SN12C renal,> 100 µM
same,TGI,RXF-631 renal,> 100 µM
same,TGI,HCT-116 colon,> 100 µM
same,TGI,786-0 renal,> 100 µM
same,TGI,OVCAR-8 ovarian,> 100 µM
same,TGI,KM20L2 colon,> 100 µM
same,TGI,EKVX NSCLC,> 100 µM
